Experimental data: BigSolDB 2.1

FC(F)(F)c1cccnc1Cl
solubility (mole fraction)
Conditions	263.15 K	268.15 K	273.15 K	278.15 K	283.15 K	288.15 K	293.15 K	298.15 K	303.15 K
in ethanol	0.0807	0.112	0.141	0.186	0.262	0.363	0.476	0.621	0.831
in ethyl acetate	0.306	0.35	0.399	0.455	0.508	0.583	0.652	0.739	0.824
in n-butanol	0.0947	0.118	0.14	0.183	0.229	0.284	0.345	0.421	0.51
